Tests used:
[1] = test system: rat anti-glomerular basement membrane (GBM) antibody induced nephritis model; assay: rat anti-GBM antibody induced nephritis model (urinary protein excretion, plasma total cholesterol); format: in vivo; settings: disease animal model showing nephrotic syndrome-like symptoms
Protocol: Using a rat anti-GBM antibody induced nephritis model, the suppressive effect of Compound A on an increase in urinary protein excretion and plasma total cholesterol concentration so was evaluated. The evaluation was performed by reference to non-patent document 2. As the experiment animal, 8-week-old female WKY/NCrlCrlj rat (CHARLES RIVER LABORATORIES JAPAN, INC.) was used. Monohydrochloride of Compound A was dissolved in 0.5% (w/v) methylcellulose (MC) to prepare 2 mg/mL and 6 mg/mL Compound A solutions. Ciclosporin (Wako Pure Chemical Industries, Ltd., 0.5% (w/v)) was suspended in MC to prepare a 2 mg/mL Ciclosporin suspension. […]
As for urine, the urine volume was measured, after which the protein concentration in the centrifugal supernatant was measured by absorbance at wavelength 600 nm/sub-wavelength 660 nm using a total protein assay kit (micro TP-Test Wako, Wako Pure Chemical Industries, Ltd.). The urinary protein excretion (mg/day) was calculated from the urine volume and the protein concentration.
As for blood, the total cholesterol concentration (mg/dL) in plasma obtained by centrifugation was measured using a biochemical automatic analysis apparatus (Hitachi automatic analysis apparatus 7180, Hitachi High-Technologies).
The mean of the urinary protein excretion and the plasma total cholesterol concentration was calculated.

[2] = biological target: T1, inducible T cell kinase (ITK) (Homo sapiens, UniProt Q08881); settings: described in patent document 1 (WO 2011/065402); cited from earlier work
T1 sequence (Q08881 1-620): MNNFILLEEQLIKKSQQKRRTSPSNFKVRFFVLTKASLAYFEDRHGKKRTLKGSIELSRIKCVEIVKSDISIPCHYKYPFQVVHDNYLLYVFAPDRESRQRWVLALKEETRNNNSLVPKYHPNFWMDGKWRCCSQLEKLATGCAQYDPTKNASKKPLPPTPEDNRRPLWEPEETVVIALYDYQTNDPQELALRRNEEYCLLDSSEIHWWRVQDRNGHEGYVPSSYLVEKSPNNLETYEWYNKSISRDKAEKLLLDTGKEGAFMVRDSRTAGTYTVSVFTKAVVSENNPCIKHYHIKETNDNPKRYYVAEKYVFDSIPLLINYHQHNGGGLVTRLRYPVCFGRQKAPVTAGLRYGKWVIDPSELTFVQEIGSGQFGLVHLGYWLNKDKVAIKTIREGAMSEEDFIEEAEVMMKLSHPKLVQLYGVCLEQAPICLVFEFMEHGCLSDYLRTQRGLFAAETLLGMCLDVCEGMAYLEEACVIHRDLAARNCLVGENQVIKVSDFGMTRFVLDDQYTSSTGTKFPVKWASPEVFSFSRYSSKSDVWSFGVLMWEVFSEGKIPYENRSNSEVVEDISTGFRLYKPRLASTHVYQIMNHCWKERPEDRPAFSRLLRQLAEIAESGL

For `C[C@@H](C(=O)N(C)c1ccc2cc(-c3n[nH]c4c3CCC(C)(C)C4)[nH]c2c1)N1CCOCC1` [Compound A, N-[2-(6,6-dimethyl-4,5,6,7-tetrahydro-1H-indazol-3-yl)-1H-indol-6-yl]-N-methyl-(2S)-2-(morpholin-4-yl)propanamide], which “severity of the disease” value [1] is on record?
Its value is “significantly reduce severity of the disease”.

And the “inducible T cell kinase (ITK) inhibitory activity” value [2]?
The value was “has an inducible T cell kinase (ITK) inhibitory activity”.

From patent publication US12011448B2, “Therapeutic or preventing agent for nephrotic syndrome including indole compound” (Japan Tobacco Inc., priority 2018, dated 2024)
